Test results taken from a compilation of properties of binary mixtures (doi:10.1021/acs.jced.3c00239).

Experiment: xn = mol fraction of the nth substance listed
Details: 100 kPa

CCCCO + CC[n+]1ccn(C)c1.N#C[N-]C#N
x2 = 0
Details	speed of sound [m/s]	viscosity [mPa·s]
298.15 K	1241	2.69
303.15 K	1224	2.41
308.15 K	1207	2.17
313.15 K	1191	1.91
318.15 K	1174	1.71
323.15 K	1158	1.57

CC[n+]1ccn(C)c1.N#C[N-]C#N + CCCCO
Details	speed of sound [m/s]	viscosity [mPa·s]
298.15 K, x1 = 0.1015	1316	2.73
298.15 K, x1 = 0.2007	1385	2.85
298.15 K, x1 = 0.4008	1515	3.54
298.15 K, x1 = 0.5021	1575	4.21
298.15 K, x1 = 0.6014	1629	5.1
298.15 K, x1 = 0.7012	1685	6.4
298.15 K, x1 = 0.8016	1725	7.9
298.15 K, x1 = 0.9012	1763	10
298.15 K, x1 = 1	1787	13.1
303.15 K, x1 = 0.1015	1300	2.36
303.15 K, x1 = 0.2007	1369	2.41
303.15 K, x1 = 0.3006	1435	2.63
303.15 K, x1 = 0.4008	1499	2.99
303.15 K, x1 = 0.5021	1559	3.55
303.15 K, x1 = 0.6014	1613	4.26
303.15 K, x1 = 0.7012	1669	5.2
303.15 K, x1 = 0.8016	1709	6.6
303.15 K, x1 = 1	1775	11.8
308.15 K, x1 = 0.1015	1283	2.11
308.15 K, x1 = 0.2007	1352	2.17
308.15 K, x1 = 0.5021	1542	2.86
308.15 K, x1 = 0.6014	1596	3.47
308.15 K, x1 = 0.9012	1730	7.3
308.15 K, x1 = 1	1763	10.9
313.15 K, x1 = 0.1015	1266	1.91
313.15 K, x1 = 0.4008	1466	2.16
313.15 K, x1 = 0.5021	1525	2.38
313.15 K, x1 = 0.6014	1580	2.89
313.15 K, x1 = 0.7012	1636	3.58
313.15 K, x1 = 0.8016	1676	4.42
313.15 K, x1 = 0.9012	1713	6
313.15 K, x1 = 1	1751	9
318.15 K, x1 = 0.1015	1250	1.71
318.15 K, x1 = 0.2007	1319	1.79
318.15 K, x1 = 0.3006	1385	1.86
318.15 K, x1 = 0.4008	1449	1.93
318.15 K, x1 = 0.5021	1509	2.07
318.15 K, x1 = 0.7012	1619	2.91
318.15 K, x1 = 0.8016	1659	3.61
318.15 K, x1 = 0.9012	1697	5
318.15 K, x1 = 1	1739	8.1
323.15 K, x1 = 0.1015	1233	1.52
323.15 K, x1 = 0.3006	1369	1.63
323.15 K, x1 = 0.5021	1492	1.84
323.15 K, x1 = 0.6014	1547	1.99
323.15 K, x1 = 0.7012	1603	2.43
323.15 K, x1 = 0.8016	1643	3.03
323.15 K, x1 = 0.9012	1680	4.01
323.15 K, x1 = 1	1727	7.3
